According to the supplement of paper PMC10307832:

Tests used:
Assay in all cases: relative viability (nuclei count vs DMSO), 5 days (fraction); higher = more cells survive
Doramapimod + Pictilisib = compound: Cc1ccc(-n2nc(C(C)(C)C)cc2NC(=O)Nc2ccc(OCCN3CCOCC3)c3ccccc23)cc1 [Doramapimod] + CS(=O)(=O)N1CCN(Cc2cc3nc(-c4cccc5[nH]ncc45)nc(N4CCOCC4)c3s2)CC1 [Pictilisib] (partner 1 µM)
Outline: (§1)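 After 5 days of treatment, lung cancer cells in 1536-well plates were fixed and stained in a single step (final 0.05% Triton X-100, 1% formaldehyde, 1 ug/ml Hoechst) and their nuclei counted on 4× images. Treatment had been applied by pin tool the day after seeding as one drug alone or as a fixed anchor-drug dose with five library-drug doses (not always all listed) in √10 steps. Relative viability is the nuclei count of treated wells divided by that of vehicle wells, and values are medians of duplicate plates.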

Doramapimod + Linsitinib = compound: Cc1ccc(-n2nc(C(C)(C)C)cc2NC(=O)Nc2ccc(OCCN3CCOCC3)c3ccccc23)cc1 [Doramapimod] + C[C@]1(O)C[C@@H](c2nc(-c3ccc4ccc(-c5ccccc5)nc4c3)c3c(N)nccn32)C1 [Linsitinib] (partner 1 µM)
Outline: as §1

RAF265 + Palbociclib = compound: Cn1c(Nc2ccc(C(F)(F)F)cc2)nc2cc(Oc3ccnc(-c4ncc(C(F)(F)F)[nH]4)c3)ccc21 [RAF265] + CC(=O)c1c(C)c2cnc(Nc3ccc(N4CCNCC4)cn3)nc2n(C2CCCC2)c1=O [Palbociclib] (partner 0.5 µM)
Outline: as §1

RAF265 + Pemetrexed = compound: Cn1c(Nc2ccc(C(F)(F)F)cc2)nc2cc(Oc3ccnc(-c4ncc(C(F)(F)F)[nH]4)c3)ccc21 [RAF265] + Nc1nc2[nH]cc(CCc3ccc(C(=O)N[C@@H](CCC(=O)O)C(=O)O)cc3)c2c(=O)[nH]1 [Pemetrexed] (partner 0.2 µM)
Outline: as §1

Row | Cell Line | relative viability (Doramapimod + Pictilisib; first compound 0.02 µM) | relative viability (Doramapimod + Pictilisib; first compound 0.06325 µM) | relative viability (Doramapimod + Pictilisib; first compound 0.2 µM) | relative viability (Doramapimod + Pictilisib; first compound 0.6325 µM) | relative viability (Doramapimod + Pictilisib; first compound 2 µM) | relative viability (Doramapimod + Linsitinib; first compound 0.02 µM) | relative viability (Doramapimod + Linsitinib; first compound 0.06325 µM) | relative viability (Doramapimod + Linsitinib; first compound 0.2 µM) | relative viability (Doramapimod + Linsitinib; first compound 0.6325 µM) | relative viability (Doramapimod + Linsitinib; first compound 2 µM) | relative viability (RAF265 + Palbociclib; first compound 0.01 µM) | relative viability (RAF265 + Palbociclib; first compound 0.03162 µM) | relative viability (RAF265 + Palbociclib; first compound 0.1 µM) | relative viability (RAF265 + Palbociclib; first compound 0.3162 µM) | relative viability (RAF265 + Palbociclib; first compound 1 µM) | relative viability (RAF265 + Pemetrexed; first compound 0.01 µM) | relative viability (RAF265 + Pemetrexed; first compound 0.03162 µM) | relative viability (RAF265 + Pemetrexed; first compound 0.1 µM) | relative viability (RAF265 + Pemetrexed; first compound 0.3162 µM) | relative viability (RAF265 + Pemetrexed; first compound 1 µM)
1 | NCI-H727 | 0.213 | 0.5 | 0.408 | 0.321 | 0.411 | 0.166 | 0.221 | 0.366 | 0.317 | 0.278 | 0.684 | 0.626 | 0.692 | 0.611 | 0.602 |  |  |  |  | 
2 | HARA | 0.281 | 0.347 | 0.273 | 0.503 | 0.302 | 0.943 | 0.901 | 0.904 | 0.987 | 0.805 | 0.298 | 0.277 | 0.235 | 0.215 | 0.178 | 0.269 | 0.275 | 0.239 | 0.218 | 0.259
3 | NCI-H2228 | 0.374 | 0.563 | 0.417 | 0.366 | 0.337 | 0.762 | 0.449 | 0.632 | 0.65 | 0.464 | 0.721 | 0.73 | 0.818 | 0.333 | 0.284 | 0.325 | 0.353 | 0.303 | 0.297 | 0.268
4 | LCLC-97TM1 | 0.195 | 0.162 | 0.177 | 0.18 | 0.206 | 0.181 | 0.169 | 0.161 | 0.191 | 0.17 | 0.233 | 0.245 | 0.158 | 0.208 | 0.0796 | 0.145 | 0.155 | 0.149 | 0.153 | 0.128
5 | LC-2-ad | 0.303 | 0.429 | 0.605 | 0.537 | 0.267 | 0.856 | 0.802 | 0.95 | 0.88 | 0.684 | 0.488 | 0.499 | 0.55 | 0.58 | 0.29 | 0.275 | 0.3 | 0.288 | 0.292 | 0.258
6 | SK-LU-1 | 0.511 | 0.627 | 0.657 | 0.726 | 0.603 | 1.07 | 1.02 | 1.2 | 1.16 | 0.941 | 0.399 | 0.342 | 0.33 | 0.318 | 0.251 | 0.893 | 0.838 | 0.711 | 0.544 | 0.435
7 | EKVX | 0.391 | 0.375 | 0.364 | 0.513 | 0.352 | 1.03 | 0.972 | 0.902 | 1.15 | 0.95 | 0.429 | 0.405 | 0.416 | 0.249 | 0.276 | 0.373 | 0.44 | 0.456 | 0.255 | 0.358
